# Data: paper PMC7767053, “Functional Analysis of Odorant-Binding Proteins 12 and 17 from Wheat Blossom Midge Sitodiplosis mosellana Géhin (Diptera: Cecidomyiidae)” (Insects, 2020)
# “Also recorded” adds a separate entry of the source. Read-outs that look alike come from different tables or passages of the source.
# What was measured:
# SmosOBP12 = SmosOBP12 (Sitodiplosis mosellana, UniProt A0A346RTY7); assay: Fluorescence competitive binding assay with 1-NPN probe, recombinant SmosOBP12; conditions: for Ki: calculated from IC50, Ki = [IC50]/(1 + [1-NPN]/K1-NPN)
# Experimental: (§1) To determine binding affinities of SmosOBP12 and SmosOBP17 to host plant volatile compounds, fluorescence competitive binding assays were conducted using 1-N-phenyl-naphthylamine (1-NPN) as the fluorescent probe. Twenty-eight volatile compounds from winter wheat (Table 2) were selected based on our previous research. Both the probe and candidate ligands were dissolved in chromatographic-grade methanol to obtain 1 mM stock solutions, whereas recombinant SmosOBPs were diluted in 20 mM Tris-HCl (pH 7.4) to 2 μM. Fluorescence intensity was detected on an F-4600 fluorescence spectrophotometer (Hitachi, Tokyo, Japan) with a 1 cm light path quartz cuvette. Slits of both excitation and emissions were 10 nm in width. The probe was excited at 337 nm, and emission spectra were recorded between 370 and 550 nm.
# (§2) Affinities of SmosOBPs to tested volatile ligands were measured by competition assays: to the 1 mL solution containing 2 μM recombinant protein and 2 μM 1-NPN, 1 mM solution of each putative volatile ligand (in a 2 µL aliquot) was added to final concentrations of 2–14 μM for SmosOBP12 and 2–40 μM for SmosOBP17, respectively. Maximal fluorescence intensities were plotted against ligand concentrations. Data were obtained from three independent measurements.
# (§3) The Kd value was calculated using GraphPad Prism 5 (GraphPad Software Inc., La Jolla, CA, USA) via nonlinear regression for a unique site of binding. The inhibition constant (Ki) of each ligand competitor was calculated from the corresponding IC50 value (the concentration of competitor displacing 50% of initial fluorescence intensity) according to the equation: Ki = [IC50]/(1 + [1-NPN]/K1-NPN), where [1-NPN] is the free concentration of 1-NPN, and K1-NPN is the dissociation constant of the SmosOBPs/1-NPN complex.
# S. mosellana females = assay: Y-tube olfactometer bioassay; format: in vivo, Sitodiplosis mosellana; conditions: 10 μL of 20 μg/μL in paraffin oil vs paraffin oil control; 60 females
# Experimental: Behavioral responses of S. mosellana females to the 28 volatile ligands were measured in a glass Y-tube olfactometer. The base and two arms of the Y-tube are 15 cm in length and 25 mm in internal diameter. The angle between arms is 60°. A 10 μL aliquot of the test chemical in paraffin oil at a concentration of 20 μg/μL [45] was applied to a filter paper strip (20 × 20 mm), which was allowed to evaporate for 20 s and then placed into one of the two odor bottles. The other odor bottle contained a filter paper strip treated with 10 μL of paraffin oil as the control. Moist, activated-charcoal filtered air entered both odor bottles connected by Teflon tubing to their respective arms of the Y-tube. The airflow rate through the olfactometer was 100 mL/min, which was measured by a float rotor meter. A newly emerged female S. mosellana adult was introduced into the end of the base of the Y-tube, which was then immediately covered with a dark paper box. An office lamp (20 W) illuminated the joint of two arms to facilitate observation. The choice was made if the S. mosellana female walked or flew 5 cm past the Y junction within 5 min and remained there for at least 15 s. Otherwise, it would be recorded as no-choice. Odor source was renewed for every five individuals. After testing for 10 individuals, the Y-tube was thoroughly cleaned with 95% ethanol and dried, and the treatment and control arms were switched to avoid the directional bias. After one odor source was tested, the Y-tube, odor bottles, and Teflon tubing were cleaned and dried before reuse. All experiments were conducted in a laboratory with a temperature of 25 ± 1 °C from 5:00 to 9:00 p.m. Sixty female adults were tested in each treatment group, and each individual was used only once. The choice response of insects in each treatment group was analyzed by the chi-square test using SPSS 20.0 software (Chicago, IL, USA). Non-selecting insects were recorded but not included in the statistical analysis.
# [1] = tested on: female antennae of S. mosellana; design: method as in Cheng et al., 2020; conditions: ref Cheng et al., 2020; cited from earlier work
# SmosOBP17 = SmosOBP17 (Sitodiplosis mosellana, UniProt A0A346RTY9); assay: Fluorescence competitive binding assay with 1-NPN probe, recombinant SmosOBP17; conditions: for Ki: calculated from IC50, Ki = [IC50]/(1 + [1-NPN]/K1-NPN); for binding to SmosOBP17 (in words): fluorescence competitive binding
# Experimental: as §1, §2, §3
# SmosOBP21 = tested on: SmosOBP21; design: method as in PMID 31017726; conditions: cited from earlier work
# SmosOBP11 = tested on: SmosOBP11; design: method as in PMID 31017726; conditions: cited from earlier work
# SmosOBP16 = tested on: SmosOBP16; design: method as in PMID 31017726; conditions: cited from earlier work
# [2] = displacement of 1-NPN, 2 μM protein, 2 μM 1-NPN, ligand 2–14 μM, three independent measurements, read-out: SmosOBP12 IC50
# [3] = displacement of 1-NPN, 2 μM protein, 2 μM 1-NPN, ligand 2–40 μM, three independent measurements, read-out: SmosOBP17 IC50
# SmosOBP17, sequence (A0A346RTY9 entry or part of it): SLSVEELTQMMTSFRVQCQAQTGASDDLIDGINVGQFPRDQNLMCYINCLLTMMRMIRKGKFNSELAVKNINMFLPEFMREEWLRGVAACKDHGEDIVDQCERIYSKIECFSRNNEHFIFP
# SmosOBP12, sequence (A0A346RTY7 entry or part of it): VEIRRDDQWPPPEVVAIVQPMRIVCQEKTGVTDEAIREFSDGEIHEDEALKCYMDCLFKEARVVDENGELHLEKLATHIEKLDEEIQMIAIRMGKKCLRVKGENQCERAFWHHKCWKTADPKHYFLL
Compound,Ki (SmosOBP12; read-out: SmosOBP12 Ki),IC50 (SmosOBP12; [2]),behavioral response of S. mosellana female adults (S. mosellana females),electrophysiological response on female antennae [1],IC50 (SmosOBP17; [3]),Ki (SmosOBP17),IC50 (SmosOBP12),Ki (SmosOBP12; SmosOBP12 Ki),IC50 (SmosOBP17),binding to SmosOBP21 (in words) (SmosOBP21),"Ki (SmosOBP12; listed as ocimene, read-out: SmosOBP12 Ki)",binding to SmosOBP11 (in words) (SmosOBP11),binding to SmosOBP17 (in words) (SmosOBP17),binding to SmosOBP16 (in words) (SmosOBP16),binding to SmosOBP12 (in words) (SmosOBP12; fluorescence competitive binding)
C=CC(O)CCCCC (stereo not drawn) [1-Octen-3-ol],5.29 ± 0.11 µM,6.55 ± 0.12 µM,intensive response; also recorded: significant attraction; also recorded: significantly attracted,strong electrophysiological responses,> 40 µM,–,–,–,–,–,–,–,–,–,–
CC1=CCC2C(C1)C2(C)C (stereo not drawn) [3-Carene],3.84 ± 0.12 µM,4.76 ± 0.15 µM,intensive response; also recorded: significant attraction,–,> 40 µM,–,–,–,–,–,–,–,–,–,–
CCCC(O)CC (stereo not drawn) [3-Hexanol],3.33 ± 0.05 µM,4.12 ± 0.07 µM,intensive response; also recorded: significant attraction; also recorded: significantly attracted,strong electrophysiological responses,34.68 ± 0.34 µM,26.05 ± 0.25 µM,–,–,–,–,–,–,–,–,–
CC/C=C\CCOC(C)=O [(Z)-3-Hexenyl acetate],7.18 ± 0.01 µM,8.88 ± 0.02 µM,intensive response; also recorded: significant attraction; also recorded: significantly attracted,strong electrophysiological responses,> 40 µM,–,–,–,–,–,–,–,–,–,–
CC(C)(CO)[C@@H](O)C(=O)NCCCO [D-Panthenol],4.07 ± 0.05 µM,5.04 ± 0.08 µM,intensive response; also recorded: significant attraction; also recorded: significantly attracted,strong electrophysiological responses,38.01 ± 0.2 µM,28.55 ± 0.15 µM,–,–,–,–,–,–,–,–,–
CCCCCCC(=O)OCC [Ethyl heptanoate],7.29 ± 0.09 µM,9 ± 0.11 µM,intensive response; also recorded: significant attraction; also recorded: significantly attracted,strong electrophysiological responses,38.28 ± 0.12 µM,28.76 ± 0.09 µM,–,–,–,–,–,–,–,–,–
CCCCCCCOC(C)=O [Heptyl acetate],3.34 ± 0.02 µM,4.11 ± 0.02 µM,intensive response; also recorded: significant attraction; also recorded: significantly attracted,strong electrophysiological responses,28.79 ± 0.09 µM,21.63 ± 0.06 µM,–,–,–,–,–,–,–,–,–
CCCCCCOC(C)=O [Hexyl acetate],10.42 ± 0.08 µM,12.88 ± 0.09 µM,intensive response; also recorded: significant attraction; also recorded: significantly attracted,strong electrophysiological responses,33.96 ± 0.03 µM,25.51 ± 0.02 µM,–,–,–,–,–,–,–,–,–
COC(=O)c1ccccc1O [Methyl salicylate],–,–,intensive response; also recorded: significant attraction; also recorded: significantly attracted,strong electrophysiological responses,–,–,11.9 ± 0.24 µM,9.62 ± 0.33 µM,26.8 ± 0.27 µM,–,–,–,–,–,–
C=CC(C)=CCC=C(C)C [Ocimene],8.24 ± 0.03 µM,10.17 ± 0.04 µM,repelled; also recorded: intensive response; also recorded: significant repulsion; also recorded: strong repelling effect,–,> 40 µM,> 30 µM,–,–,–,did not bind,8.2 µM,did not bind,insensitive; also recorded: did not bind,did not bind,–
C=C/C(C)=C/C/C=C(\C)CCC=C(C)C [α-Farnesene],> 11.3 µM,> 14 µM,intensive response; also recorded: significant repulsion; also recorded: repelled,–,> 40 µM,> 30 µM,–,–,–,no affinity,–,no affinity,did not show any affinity; also recorded: no affinity,no affinity,did not show any affinity; also recorded: no affinity
